Results from patent US11453669B2, “Polycyclic pyridone derivative” (Shionogi & Co., Ltd., priority 2018, dated 2022).
Read-outs that look alike come from different tables or passages of the source.

Legend:
[1] = molecular target: T1, Voltage gated sodium channel (Nav1.5 channel) encoded by SCN5A gene (Homo sapiens, UniProt Q14524); experiment: Nav test (QPatch whole cell patch clamp); format: cell-based; conditions: HEK cells expressing Nav1.5, applied 5 minutes or more, room temperature
T1 construct: expressed in transfected cells; host or cells: HEK cells
T1 sequence (Q14524 whole entry): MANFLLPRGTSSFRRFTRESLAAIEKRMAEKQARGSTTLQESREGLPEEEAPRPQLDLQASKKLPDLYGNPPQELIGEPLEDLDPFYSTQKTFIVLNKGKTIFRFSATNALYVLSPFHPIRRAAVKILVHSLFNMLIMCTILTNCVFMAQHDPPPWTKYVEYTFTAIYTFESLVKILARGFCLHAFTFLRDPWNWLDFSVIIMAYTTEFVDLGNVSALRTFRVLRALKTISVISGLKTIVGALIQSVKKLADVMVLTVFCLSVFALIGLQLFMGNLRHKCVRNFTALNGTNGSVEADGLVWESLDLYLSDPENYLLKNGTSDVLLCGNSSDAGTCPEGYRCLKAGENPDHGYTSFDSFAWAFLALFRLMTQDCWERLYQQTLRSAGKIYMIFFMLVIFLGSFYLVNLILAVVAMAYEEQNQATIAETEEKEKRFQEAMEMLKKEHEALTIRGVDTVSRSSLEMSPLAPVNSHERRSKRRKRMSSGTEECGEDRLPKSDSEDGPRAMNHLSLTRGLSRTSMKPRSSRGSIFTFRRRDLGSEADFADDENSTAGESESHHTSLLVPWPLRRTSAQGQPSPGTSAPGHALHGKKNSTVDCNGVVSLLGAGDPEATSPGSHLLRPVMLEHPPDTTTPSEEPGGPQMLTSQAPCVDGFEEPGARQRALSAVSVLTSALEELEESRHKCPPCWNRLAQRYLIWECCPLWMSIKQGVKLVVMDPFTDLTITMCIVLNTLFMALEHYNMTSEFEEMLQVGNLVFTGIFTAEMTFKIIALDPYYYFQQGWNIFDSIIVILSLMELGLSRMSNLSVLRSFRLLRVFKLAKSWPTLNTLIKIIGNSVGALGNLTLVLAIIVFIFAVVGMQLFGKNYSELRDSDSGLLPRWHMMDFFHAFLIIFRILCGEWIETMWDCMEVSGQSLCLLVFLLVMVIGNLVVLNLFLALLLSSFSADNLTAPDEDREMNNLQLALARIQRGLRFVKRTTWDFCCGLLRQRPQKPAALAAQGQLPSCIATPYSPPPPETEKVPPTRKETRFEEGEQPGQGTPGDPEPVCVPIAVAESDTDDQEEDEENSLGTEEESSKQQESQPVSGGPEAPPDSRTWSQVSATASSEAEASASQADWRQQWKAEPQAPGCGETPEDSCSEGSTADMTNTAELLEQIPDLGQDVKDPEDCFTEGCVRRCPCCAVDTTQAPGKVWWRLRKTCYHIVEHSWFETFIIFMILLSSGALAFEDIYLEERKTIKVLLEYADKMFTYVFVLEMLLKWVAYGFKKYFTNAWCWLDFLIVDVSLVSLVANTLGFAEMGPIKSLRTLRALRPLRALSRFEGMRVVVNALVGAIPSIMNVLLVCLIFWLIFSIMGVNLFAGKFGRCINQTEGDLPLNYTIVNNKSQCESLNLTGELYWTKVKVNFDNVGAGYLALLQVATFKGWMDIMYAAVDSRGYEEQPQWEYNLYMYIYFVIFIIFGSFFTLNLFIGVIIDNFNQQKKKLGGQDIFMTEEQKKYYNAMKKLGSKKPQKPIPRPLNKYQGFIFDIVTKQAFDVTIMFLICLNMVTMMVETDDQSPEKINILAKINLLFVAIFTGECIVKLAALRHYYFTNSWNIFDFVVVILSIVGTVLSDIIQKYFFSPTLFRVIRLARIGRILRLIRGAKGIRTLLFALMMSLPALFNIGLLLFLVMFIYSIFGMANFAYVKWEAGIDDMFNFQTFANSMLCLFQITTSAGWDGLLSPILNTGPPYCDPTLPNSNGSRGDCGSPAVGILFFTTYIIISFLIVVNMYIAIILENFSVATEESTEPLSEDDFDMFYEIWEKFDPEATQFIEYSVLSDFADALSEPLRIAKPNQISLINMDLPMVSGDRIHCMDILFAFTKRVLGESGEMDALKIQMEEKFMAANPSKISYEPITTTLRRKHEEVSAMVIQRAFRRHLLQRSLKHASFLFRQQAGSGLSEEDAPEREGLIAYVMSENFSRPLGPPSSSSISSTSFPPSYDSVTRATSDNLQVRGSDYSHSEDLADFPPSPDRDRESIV
Description: A cell was retained at a membrane potential of −100 mV by whole cell patch clamp method using a fully automated patch clamp system (QPatch; Sophion Bioscience A/S), and INa induced by depolarization pulse stimulation at −10 mV for 20 ms was recorded. […] The extracellular solution in which the medium and the compound of the present invention had been dissolved at each objective concentration was applied to the cell for 5 minutes or more under conditions of room temperature.

HIV [2] = experiment: Anti-HIV activity evaluation test in the presence of human serum protein (MT-4 cells); format: cell-based; conditions: PS=4×(EC50 with 25% human serum protein/EC50 without), 100% extrapolated value
Description: Serial dilutions of a test sample were prepared in a 96-well microplate (50 μL/well). A human serum protein solution (human serum protein concentration: 50%) was dispensed into a 96-well microplate containing a test sample in an amount of 100 μL/well, and left standing at room temperature for 1 hour. 100 μL/well of the culture solution was dispensed to a plate without serum. 3.0×10^5 cells/well of MT-4 cells and 3 μL/well of HIV virus solution were mixed for the required number of wells and the mixture was reacted at 37° C. for 1 hour. After the reaction, the cell suspension was centrifuged and the supernatant discarded. The infected cells were dispersed in a culture solution for the required number of wells at 50 μL/well, and 50 μL/well was dispensed to a 96-well microplate containing the test sample and human serum protein (human serum protein final concentration: 25%). The plate was mixed with a plate mixer and cultured for 4 days in a CO2 incubator. An MTT (3-(4,5-dimethylthiazol-2-yl)-2,5-diphenyltetrazolium bromide) solution was dispensed at 30 μL/well. The plate was reacted for 1 hour in a CO2 incubator. 150 μL of the supernatant was removed from each well so as not to take up the cells. […] The absorbance of the mixed plate was measured at two wavelengths of 560 nm and 690 nm using a microplate reader. […]

[3] = format: in vitro ADME; conditions: human, 30 min, 0.5 μmol/L, pH 7.4
Description: Using commercially available pooled human liver microsomes, a compound of the present invention was reacted for a constant time, and a remaining rate was calculated by comparing a reacted sample and an unreacted sample, thereby, a degree at which the compound of the present invention was metabolized in liver was assessed.
A reaction was performed (oxidative reaction) at 37° C. for 0 minute or 30 minutes in the presence of 1 mmol/L NADPH in 0.2 mL of a buffer solution (50 mmol/L Tris-HCl pH 7.4, 150 mmol/L potassium chloride, 10 mmol/L magnesium chloride) containing 0.5 mg protein/mL of human liver microsomes. After the reaction, 50 μL of the reaction solution was added to 100 μL of a solution of methanol/acetonitrile=1/1 (v/v), and the mixture was mixed and centrifuged at 3000 rpm for 15 minutes. The compound of the present invention in the centrifugation supernatant was quantified by LC/MS/MS or solid-phase extraction (SPE)/MS. The amount of the compound of the present invention remaining after the reaction was calculated with the amount of the compound at 0 minutes of the reaction defined as 100%.

HIV [4] = experiment: Anti-HIV activity evaluation test using PBMC of a healthy subject; format: cell-based; conditions: Human immunodeficiency virus 1, 96 h, read-out: 90% HIV inhibitory concentration (EC90); PHA-stimulated PBMC, cultured 4 days, reverse transcriptase activity
Description: Serial dilutions of a test sample were prepared in a 96-well microplate (50 μL/well). PBMC stimulated with 1.0×10^5 cells/well of Phytohemagglutinin (PHA) and an HIV virus solution were mixed for the required number of wells, and the mixture was reacted at 37° C. for 1 hour. After the reaction, the cell suspension was centrifuged and the supernatant discarded. The infected cells were dispersed in a culture solution for the required number of wells at 150 μL/well, and 150 μL/well was dispensed to a 96-well microplate containing a test sample. The plate was mixed with a plate mixer and cultured for 4 days in a C02 incubator. The reverse transcriptase activity in the culture solution was measured.

HIV [5] = experiment: Anti-HIV activity (MT-4 cells, MTT); format: cell-based; conditions: Human immunodeficiency virus 1, MT4, 96 h, read-out: EC50_nM (50% HIV inhibitory concentration)
Description: Serial dilutions of a test sample were prepared in a 96-well microplate (50 μL/well). 2.5×10^5 cells/mL of an MT-4 cell suspension was dispensed at 100 μL/well to the plate containing the test sample. Then, an HIV virus solution was dispensed at 50 μL/well. The plate was mixed with a plate mixer and cultured for 4 days in a CO2 incubator. An MTT (3-(4,5-dimethylthiazol-2-yl)-2,5-diphenyltetrazolium bromide) solution was dispensed at 30 μL/well. The plate was reacted for 1 hour in a CO2 incubator. 150 μL of the supernatant was removed from each well so as not to take up the cells. 150 μL of a cell lysis solution was added to each well and well mixed with a plate mixer until the cells were completely lysed. The absorbance of the mixed plate was measured at two wavelengths of 560 nm and 690 nm using a microplate reader.

[6] = system: HIV mutant strain 1 (E138K/G140S/Q148H/N155H); format: cell-based; conditions: FC=EC50 of the mutant strain/EC50 of the wild strain, HeLa-CD4 cells
Description: (§1) Serial dilutions of a test sample were prepared in a 96-well microplate (50 μL/well). 2.5×10^5 cells/mL of a HeLa-CD4 cell suspension was dispensed at 100 μL/well to the plate containing the test sample. Then, an HIV virus solution (wild strain and mutant strain) was dispensed at 50 μL/well. The plate was mixed with a plate mixer and cultured for 3 days in a CO2 incubator. The culture supernatant in each well was removed by suction. A cell lysis buffer in a reporter assay kit was dispensed at 100 μL/well, and the plate was frozen in a freezer (−80° C.). The plate frozen in a freezer was thawed at room temperature, then mixed with a plate mixer, and centrifuged at 1,200 rpm for 5 minutes. The supernatant of each well was dispensed at 20 μL/well to a 96-well microplate (BLACK). A chemiluminescent in the reporter assay kit reagent was dispensed at 100 μL/well and reacted at room temperature for approximately 1 hour. Then, luminescence intensity was measured using MicroBeta TRILUX.

[7] = system: HIV mutant strain 2 (E92Q/E138T/G140S/Q148H); format: cell-based; conditions: FC=EC50 of the mutant strain/EC50 of the wild strain, HeLa-CD4 cells
Description: as §1

[8] = Clearance evaluation test (rat, intravenous); format: in vivo; conditions: plasma, 1 umol/kg, rats, intravenous 1 μmol/kg; for half-life: read-out: elimination half-life (t½) (converted); for clearance: read-out: total body clearance (CLtot)
Text: Experimental Material and Method
(1) Animals used: rats were used.
(2) Rearing conditions: the rats were allowed to freely take solid feed and sterilized tap water.
(3) Dose and grouping setting: a given dose was intravenously administered. Groups were set as follows:
Intravenous administration: 1 μmol/kg (n=2)
(4) Preparation of dosing solution: the test sample was solubilized using a solvent of dimethyl sulfoxide/propylene glycol=1/1 and administered.
(5) Administration method: the test sample was administered to the tail vein through a syringe with an injection needle.
(6) Evaluation item: blood was collected over time, and the concentration of the compound of the present invention in plasma was measured using LC/MS/MS.
(7) Statistical analysis: total body clearance (CLtot) and elimination half-life (t½) were calculated as to change in the concentration of the compound of the present invention in plasma by the moment analysis method.

CYP3A4 = molecular target: T2, CYP3A4 (Homo sapiens, UniProt P08684); experiment: CYP3A4 (MDZ) MBI test; format: in vitro ADME; conditions: pooled human liver microsomes, midazolam 1-hydroxylation, IC 0 min preincubation/IC 30-min preincubation
T2 construct: from tissue; host or cells: pooled human liver microsomes
T2 sequence (P08684 whole entry): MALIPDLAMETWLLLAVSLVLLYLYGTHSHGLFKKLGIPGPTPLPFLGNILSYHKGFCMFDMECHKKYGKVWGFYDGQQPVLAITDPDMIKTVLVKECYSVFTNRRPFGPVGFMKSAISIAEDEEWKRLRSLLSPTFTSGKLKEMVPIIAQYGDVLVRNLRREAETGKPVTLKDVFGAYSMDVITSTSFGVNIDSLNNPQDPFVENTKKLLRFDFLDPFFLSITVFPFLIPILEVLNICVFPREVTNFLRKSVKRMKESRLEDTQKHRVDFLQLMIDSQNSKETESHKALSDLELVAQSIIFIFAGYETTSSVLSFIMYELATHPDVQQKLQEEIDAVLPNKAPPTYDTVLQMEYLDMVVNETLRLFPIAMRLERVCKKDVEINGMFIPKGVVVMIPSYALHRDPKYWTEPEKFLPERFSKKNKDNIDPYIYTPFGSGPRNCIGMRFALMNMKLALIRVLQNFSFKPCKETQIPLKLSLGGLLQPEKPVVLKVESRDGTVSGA
Description: This test as to the inhibition of CYP3A4 by the compound of the present invention is to evaluate mechanism based inhibition (MBI) ability from enhancement in inhibitory effect, caused by a metabolism reaction, of the compound of the present invention. CYP3A4 inhibition was evaluated using pooled human liver microsomes by 1-hydroxylation reaction of midazolam (MDZ) as a marker reaction. […]
A part of pre-reaction solution was transferred to another 96-well plate, and 1/10 diluted by K-Pi buffer solution containing a substrate. […] After each plate where the marker reaction has been performed was centrifuged at 3000 rpm for 15 minutes, 1-hydroxymidazolam in the centrifugation supernatant was quantified by LC/MS/MS.
Only a solvent DMSO used for dissolving the compound was added to the reaction solution instead of the compound of the present invention, and the mixture was used as a control (100%). Remaining activity (%) was calculated at the time of the addition of the compound of the present invention at each concentration, and IC value was calculated by inverse estimation based on a logistic model using the concentrations and the rates of inhibition. A shifted IC value is calculated from IC from the 0 min preincubation/IC from the 30-min preincubation. […]

CCN1C(=O)c2c(O)c(=O)c(-c3nnc(Cc4c(F)cc(F)cc4F)s3)cn2N2CCCC[C@@H]12 [Compound I-008]
ratio of maximum peak current (INa) with compound relative to medium [1]: 103%
potency shift (PS) in the presence of human serum protein (HIV [2]): 116
residual rate [3]: 97.7
EC90 (HIV [4]): 1 nM
EC50 (HIV [5]): 1.6 nM
FC (fold change) for mutant strain 1 [6]: 3.8
FC (fold change) for mutant strain 2 [7]: 6.9

CCN1C(=O)c2c(O)c(=O)c(-c3cnn(Cc4ncc(Cl)cc4F)c3)cn2N2CCCC[C@@H]12 [II-013]
half-life [8]: 2120 min
clearance [8]: 1.36 mL/h/kg
EC50 (HIV [5]; MT-4 cells, cultured 4 days, MTT): 32 nM

CCN1C(=O)c2c(O)c(=O)c(-c3nnc(Cc4ccc(F)cc4F)s3)cn2N2C[C@@H](C)C[C@@H]12 [II-023]
ratio of maximum peak current (INa) with compound relative to medium [1]: 93.3%
potency shift (PS) in the presence of human serum protein (HIV [2]): 56
residual rate [3]: 98.3
EC90 (HIV [4]): 1.7 nM
EC50 (HIV [5]): 1.2 nM
FC (fold change) for mutant strain 1 [6]: 4.1
FC (fold change) for mutant strain 2 [7]: 2.5

CCN1C(=O)c2c(O)c(=O)c(-c3nnc(Cc4ccc(F)cc4F)s3)cn2N2[C@H](COC)CC[C@@H]12 [II-024]
ratio of maximum peak current (INa) with compound relative to medium [1]: 89.3%
residual rate [3]: 96.5
half-life [8]: 1420 min
clearance [8]: 2.18 mL/h/kg
EC50 (HIV [5]): 0.13 nM
FC (fold change) for mutant strain 1 [6]: 8.2
FC (fold change) for mutant strain 2 [7]: 11

CCN1C(=O)c2c(O)c(=O)c(-c3nnc(Cc4c(F)cc(F)cc4F)s3)cn2N2[C@H](COC)CC[C@@H]12 [II-037]
ratio of maximum peak current (INa) with compound relative to medium [1]: 88.8%
residual rate [3]: 93.4
CYP3A4 MBI grade (shifted IC) (CYP3A4): (−) (shifted IC of 1.0 or less is graded as negative (−))
EC50 (HIV [5]): 0.62 nM
FC (fold change) for mutant strain 1 [6]: 10
FC (fold change) for mutant strain 2 [7]: 11

C[C@H]1CC[C@H]2N(C)C(=O)c3c(O)c(=O)c(-c4nnc(Cc5ccc(F)cc5F)s4)cn3N2C1 [II-041]
ratio of maximum peak current (INa) with compound relative to medium [1]: 78.8%
residual rate [3]: 95.5
EC50 (HIV [5]): 0.25 nM
FC (fold change) for mutant strain 1 [6]: 5.8
FC (fold change) for mutant strain 2 [7]: 8

CCN1C(=O)c2c(O)c(=O)c(-c3nnc(Cc4ccc(F)cc4F)s3)cn2N2C[C@@H]3CC[C@@H](C3)[C@@H]12 [II-051]
residual rate [3]: 92.9
CYP3A4 MBI grade (shifted IC) (CYP3A4): (−) (shifted IC of 1.0 or less is graded as negative (−))
EC50 (HIV [5]): 0.66 nM
FC (fold change) for mutant strain 1 [6]: 2.5
FC (fold change) for mutant strain 2 [7]: 3.9
